Measurements published in patent US11306101B2 (Celgene Corporation, priority 2019, dated 2022).

Biological target: T1, CK1α (Homo sapiens, UniProt P48729+Q96SW2)
T1 construct: expressed in transfected cells
Test: CK1α ePL degradation assay in MDS-L cells
Assay type: cell-based
Conditions: MDS-L cells expressing ePL-tagged CK1α; for DC50: concentration giving 50% CK1α degradation vs DMSO control; for Y: lowest measured CK1α level normalized to DMSO control
Summary of the method: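 MDS-L cells treated with compound in a 10-point, 3-fold series from 10 μM to 0.0005 μM at 37° C, 5% CO2 for the indicated times; CK1α measured by InCELL Hunter enzyme-fragment luminescence. Levels normalized to DMSO as percent of control; lowest level reached taken as Y value.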

T1 sequence (P48729 whole entry): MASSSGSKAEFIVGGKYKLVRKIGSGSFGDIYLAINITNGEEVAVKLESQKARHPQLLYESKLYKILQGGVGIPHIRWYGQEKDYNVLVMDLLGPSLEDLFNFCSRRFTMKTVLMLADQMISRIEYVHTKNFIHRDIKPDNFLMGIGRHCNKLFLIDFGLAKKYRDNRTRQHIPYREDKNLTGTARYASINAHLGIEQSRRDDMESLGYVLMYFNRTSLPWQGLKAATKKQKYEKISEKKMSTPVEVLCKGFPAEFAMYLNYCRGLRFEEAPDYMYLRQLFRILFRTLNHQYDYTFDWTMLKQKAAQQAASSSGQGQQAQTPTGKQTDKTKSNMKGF
T1 sequence (Q96SW2 whole entry): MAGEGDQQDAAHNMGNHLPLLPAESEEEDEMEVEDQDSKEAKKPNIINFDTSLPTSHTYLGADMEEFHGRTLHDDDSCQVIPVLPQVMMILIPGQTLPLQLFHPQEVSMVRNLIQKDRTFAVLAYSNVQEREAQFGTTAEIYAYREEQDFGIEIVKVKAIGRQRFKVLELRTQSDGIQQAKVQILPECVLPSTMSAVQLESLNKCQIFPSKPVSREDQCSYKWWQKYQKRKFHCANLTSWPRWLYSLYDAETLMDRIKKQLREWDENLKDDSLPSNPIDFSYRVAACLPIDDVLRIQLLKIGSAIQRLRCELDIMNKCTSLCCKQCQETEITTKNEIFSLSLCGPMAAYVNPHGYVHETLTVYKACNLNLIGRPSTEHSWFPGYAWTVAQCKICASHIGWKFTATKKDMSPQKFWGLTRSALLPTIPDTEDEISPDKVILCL
T1 sequence (Q16531 whole entry partner): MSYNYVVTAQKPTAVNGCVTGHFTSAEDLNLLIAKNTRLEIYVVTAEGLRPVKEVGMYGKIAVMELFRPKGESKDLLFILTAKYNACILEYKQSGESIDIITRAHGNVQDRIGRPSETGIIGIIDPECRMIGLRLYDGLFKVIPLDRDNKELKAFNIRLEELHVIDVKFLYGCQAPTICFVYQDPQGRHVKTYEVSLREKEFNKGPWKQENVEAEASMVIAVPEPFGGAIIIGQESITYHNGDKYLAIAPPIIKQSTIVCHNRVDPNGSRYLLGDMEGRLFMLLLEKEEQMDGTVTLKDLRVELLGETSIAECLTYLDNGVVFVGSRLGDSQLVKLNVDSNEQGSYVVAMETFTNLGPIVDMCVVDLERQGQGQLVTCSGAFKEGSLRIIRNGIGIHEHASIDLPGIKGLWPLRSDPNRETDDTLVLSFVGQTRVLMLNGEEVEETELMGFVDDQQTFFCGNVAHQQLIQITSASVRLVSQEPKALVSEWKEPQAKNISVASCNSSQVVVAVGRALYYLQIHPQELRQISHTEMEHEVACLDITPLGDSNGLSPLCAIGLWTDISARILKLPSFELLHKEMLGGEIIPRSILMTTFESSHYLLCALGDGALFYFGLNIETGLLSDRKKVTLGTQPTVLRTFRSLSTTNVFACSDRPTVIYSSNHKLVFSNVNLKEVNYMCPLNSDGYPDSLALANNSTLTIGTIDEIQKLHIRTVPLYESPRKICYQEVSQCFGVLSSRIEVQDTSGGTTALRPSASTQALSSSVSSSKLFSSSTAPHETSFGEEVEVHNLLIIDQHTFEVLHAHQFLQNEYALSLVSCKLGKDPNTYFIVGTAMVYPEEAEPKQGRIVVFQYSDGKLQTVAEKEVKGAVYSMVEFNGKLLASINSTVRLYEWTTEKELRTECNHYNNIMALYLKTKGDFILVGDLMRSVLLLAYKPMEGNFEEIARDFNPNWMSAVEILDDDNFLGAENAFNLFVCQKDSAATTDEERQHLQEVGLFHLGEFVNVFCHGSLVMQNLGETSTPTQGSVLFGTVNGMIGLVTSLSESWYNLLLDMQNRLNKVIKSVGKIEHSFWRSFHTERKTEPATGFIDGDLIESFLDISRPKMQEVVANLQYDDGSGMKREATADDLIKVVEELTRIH

SMILES	DC50 [nM]	Y
COc1cccc([C@@H](NC(=O)c2ccc3c(c2)CN(C2CCC(=O)NC2=O)C3=O)C(F)(F)F)c1 (some centres unmarked) [Example 33]	< 100	* (a Y value (shown as *) of 0<Y≤20%)
O=C1CCC(N2Cc3cc(C(=O)N[C@H](CC(F)(F)F)c4ccccc4)ccc3C2=O)C(=O)N1 (stereo partly drawn) [Example 187, 2-(2,6-dioxopiperidin-3-yl)-1-oxo-N-((R)-3,3,3-trifluoro-1-phenylpropyl)isoindoline-5-carboxamide]	100 to 500	** (a Y value (shown as**) of 20%<Y≤35%)
O=C1CC[C@H](N2Cc3cc(C(=O)N[C@H](c4ncc(Cl)cc4Cl)C(F)(F)F)ccc3C2=O)C(=O)N1 [Example 207, N-((R)-1-(3,5-dichloropyridin-2-yl)-2,2,2-trifluoroethyl)-2-((S)-2,6-dioxopiperidin-3-yl)-1-oxoisoindoline-5-carboxamide]	< 100	* (a Y value (shown as *) of 0<Y≤20%)
O=C1CCC(N2Cc3cc(C(=O)N[C@H](c4cnccn4)C(F)(F)F)ccc3C2=O)C(=O)N1 (stereo partly drawn) [Example 82, 2-(2,6-dioxopiperidin-3-yl)-1-oxo-N-((R)-2,2,2-trifluoro-1-(pyrazin-2-yl)ethyl)isoindoline-5-carboxamide]	100 to 500	** (a Y value (shown as**) of 20%<Y≤35%)
O=C1CCC(N2Cc3c(ccc(C(=O)N[C@H](C4CCCCC4)C(F)(F)F)c3F)C2=O)C(=O)N1 (stereo partly drawn) [Example 121, N-((R)-1-cyclohexyl-2,2,2-trifluoroethyl)-2-(2,6-dioxopiperidin-3-yl)-4-fluoro-1-oxoisoindoline-5-carboxamide]	< 100	* (a Y value (shown as *) of 0<Y≤20%)
O=C1CCC(N2Cc3cc(C(=O)N[C@H](c4ccc(Cl)cc4Cl)C(F)(F)F)ccc3C2=O)C(=O)N1 (stereo partly drawn) [Example 163, N-((R)-1-(2,4-dichlorophenyl)-2,2,2-trifluoroethyl)-2-(2,6-dioxopiperidin-3-yl)-1-oxoisoindoline-5-carboxamide]	< 100	* (a Y value (shown as *) of 0<Y≤20%)
C[C@H](NC(=O)c1ccc2c(c1)CN(C1CCC(=O)NC1=O)C2=O)c1ccc(Cl)cc1F (stereo partly drawn) [Example 55, N-((S)-1-(4-chloro-2-fluorophenyl)ethyl)-2-(2,6-dioxopiperidin-3-yl)-1-oxoisoindoline-5-carboxamide]	< 100	* (a Y value (shown as *) of 0<Y≤20%)
O=C1CC[C@H](N2Cc3cc(C(=O)N[C@H](c4ccccc4)C(F)(F)F)ccc3C2=O)C(=O)N1 [Example 61, 2-((S)-2,6-dioxopiperidin-3-yl)-1-oxo-N-((R)-2,2,2-trifluoro-1-phenylethyl)isoindoline-5-carboxamide]	< 100	* (a Y value (shown as *) of 0<Y≤20%)
O=C1CCC(N2Cc3cc(C(=O)N[C@H](c4ncccc4Cl)C(F)(F)F)ccc3C2=O)C(=O)N1 (stereo partly drawn) [Example 106, N-((R)-1-(3-chloropyridin-2-yl)-2,2,2-trifluoroethyl)-2-(2,6-dioxopiperidin-3-yl)-1-oxoisoindoline-5-carboxamide]	< 100	* (a Y value (shown as *) of 0<Y≤20%)
O=C1CCC(N2Cc3cc(C(=O)N[C@H](c4cccc(Cl)c4)C(F)(F)F)ccc3C2=O)C(=O)N1 (stereo partly drawn) [Example 43, N-((R)-1-(3-chlorophenyl)-2,2,2-trifluoroethyl)-2-(2,6-dioxopiperidin-3-yl)-1-oxoisoindoline-5-carboxamide]	< 100	* (a Y value (shown as *) of 0<Y≤20%)
O=C1CCC(N2Cc3cc(C(=O)N[C@H](c4ccc(CN5CC6(COC6)C5)cc4)C(F)(F)F)ccc3C2=O)C(=O)N1 (stereo partly drawn) [Example 179, N-((1R)-1-(4-(2-oxa-6-azaspiro[3.3]heptan-6-ylmethyl)phenyl)-2,2,2-trifluoroethyl)-2-(2,6-dioxopiperidin-3-yl)-1-oxoisoindoline-5-carboxamide]	100 to 500	* (a Y value (shown as *) of 0<Y≤20%)
O=C1CCC(N2Cc3c(ccc(C(=O)N[C@H](c4ccccc4OC(F)(F)F)C(F)(F)F)c3F)C2=O)C(=O)N1 (stereo partly drawn) [Example 136, 2-(2,6-dioxopiperidin-3-yl)-4-fluoro-1-oxo-N-((R)-2,2,2-trifluoro-1-(2-(trifluoromethoxy)phenyl)ethyl)isoindoline-5-carboxamide]	< 100	* (a Y value (shown as *) of 0<Y≤20%)
O=C1CCC(N2Cc3cc(C(=O)N[C@H](c4ccccc4C(F)(F)F)C(F)(F)F)c(F)cc3C2=O)C(=O)N1 (stereo partly drawn) [Example 88, 2-(2,6-dioxopiperidin-3-yl)-6-fluoro-1-oxo-N-((R)-2,2,2-trifluoro-1-(2-(trifluoromethyl)phenyl)ethyl)isoindoline-5-carboxamide]	< 100	* (a Y value (shown as *) of 0<Y≤20%)
O=C1CCC(N2Cc3cc(C(=O)N[C@H](c4ccc(F)cc4F)C(F)(F)F)ccc3C2=O)C(=O)N1 (stereo partly drawn) [Example 80, N-((R)-1-(2,4-difluorophenyl)-2,2,2-trifluoroethyl)-2-(2,6-dioxopiperidin-3-yl)-1-oxoisoindoline-5-carboxamide]	< 100	* (a Y value (shown as *) of 0<Y≤20%)
O=C1CCC(N2Cc3cc(C(=O)N[C@H](c4cc(C(F)(F)F)ccn4)C(F)(F)F)ccc3C2=O)C(=O)N1 (stereo partly drawn) [Example 119, 2-(2,6-dioxopiperidin-3-yl)-1-oxo-N-((R)-2,2,2-trifluoro-1-(4-(trifluoromethyl)pyridin-2-yl)ethyl)isoindoline-5-carboxamide]	< 100	** (a Y value (shown as**) of 20%<Y≤35%)
O=C1CCC(N2Cc3cc(C(=O)N[C@H](c4ccc(CN5CCOCC5)cc4)C(F)(F)F)ccc3C2=O)C(=O)N1 (stereo partly drawn) [Example 142, 2-(2,6-dioxopiperidin-3-yl)-1-oxo-N-((R)-2,2,2-trifluoro-1-(4-(morpholinomethyl)phenyl)ethyl)isoindoline-5-carboxamide]	< 100	* (a Y value (shown as *) of 0<Y≤20%)
O=C1CCC(N2Cc3cc(C(=O)N[C@H](c4ccc(CN5CCC5)cc4)C(F)(F)F)ccc3C2=O)C(=O)N1 (stereo partly drawn) [Example 189, N-((R)-1-(4-(azetidin-1-ylmethyl)phenyl)-2,2,2-trifluoroethyl)-2-(2,6-dioxopiperidin-3-yl)-1-oxoisoindoline-5-carboxamide]	< 100	* (a Y value (shown as *) of 0<Y≤20%)
O=C1CCC(N2Cc3cc(C(=O)N[C@H](c4ncc(Cl)cc4F)C(F)(F)F)ccc3C2=O)C(=O)N1 (stereo partly drawn) [Example 127, N-((R)-1-(5-chloro-3-fluoropyridin-2-yl)-2,2,2-trifluoroethyl)-2-(2,6-dioxopiperidin-3-yl)-1-oxoisoindoline-5-carboxamide]	< 100	* (a Y value (shown as *) of 0<Y≤20%)
C[C@H](NC(=O)c1ccc2c(c1)CN(C1CCC(=O)NC1=O)C2=O)C1CCCC1 (some centres unmarked) [Example 3]	< 100	* (a Y value (shown as *) of 0<Y≤20%)
O=C1CCC(N2Cc3c(ccc(C(=O)N[C@@H](CC(F)(F)F)c4cccc(F)c4)c3F)C2=O)C(=O)N1 (stereo partly drawn) [Example 146, 2-(2,6-dioxopiperidin-3-yl)-4-fluoro-1-oxo-N-((S)-3,3,3-trifluoro-1-(3-fluorophenyl)propyl)isoindoline-5-carboxamide]	100 to 500	** (a Y value (shown as**) of 20%<Y≤35%)
O=C1CCC(N2Cc3cc(C(=O)N[C@H](c4cccc(F)c4Cl)C(F)(F)F)ccc3C2=O)C(=O)N1 (stereo partly drawn) [Example 152, N-((R)-1-(2-chloro-3-fluorophenyl)-2,2,2-trifluoroethyl)-2-(2,6-dioxopiperidin-3-yl)-1-oxoisoindoline-5-carboxamide]	< 100	* (a Y value (shown as *) of 0<Y≤20%)
O=C1CCC(N2Cc3cc(C(=O)N[C@H](c4cccc(C(F)(F)F)c4)C(F)(F)F)c(F)cc3C2=O)C(=O)N1 (stereo partly drawn) [Example 90, 2-(2,6-dioxopiperidin-3-yl)-6-fluoro-1-oxo-N-((R)-2,2,2-trifluoro-1-(3-(trifluoromethyl)phenyl)ethyl)isoindoline-5-carboxamide]	100 to 500	** (a Y value (shown as**) of 20%<Y≤35%)
COc1ccc([C@H](C)NC(=O)c2ccc3c(c2)CN(C2CCC(=O)NC2=O)C3=O)cc1 (some centres unmarked) [Example 12]	< 100	** (a Y value (shown as**) of 20%<Y≤35%)
O=C1CCC(N2Cc3cc(C(=O)NC(C4CCC5(CC4)CC(O)C5)C(F)(F)F)ccc3C2=O)C(=O)N1 (centres unmarked) [Example 176, 2-(2,6-dioxopiperidin-3-yl)-1-oxo-N-(2,2,2-trifluoro-1-(2-hydroxyspiro[3.5]nonan-7-yl)ethyl)isoindoline-5-carboxamide]	100 to 500	* (a Y value (shown as *) of 0<Y≤20%)
O=C1CCC(N2Cc3cc(C(=O)N[C@H](c4ccccn4)C(F)(F)F)ccc3C2=O)C(=O)N1 (stereo partly drawn) [Example 48, 2-(2,6-dioxopiperidin-3-yl)-1-oxo-N-((R)-2,2,2-trifluoro-1-(pyridin-2-yl)ethyl)isoindoline-5-carboxamide]	100 to 500	** (a Y value (shown as**) of 20%<Y≤35%)
CC(C)NC(=O)c1ccc2c(c1)CN(C1CCC(=O)NC1=O)C2=O (centres unmarked) [Example 2]	100 to 500	** (a Y value (shown as**) of 20%<Y≤35%)
O=C1CCC(N2Cc3c(ccc(C(=O)N[C@H](c4ncccc4F)C(F)(F)F)c3F)C2=O)C(=O)N1 (stereo partly drawn) [Example 117, 2-(2,6-dioxopiperidin-3-yl)-4-fluoro-1-oxo-N-((R)-2,2,2-trifluoro-1-(3-fluoropyridin-2-yl)ethyl)isoindoline-5-carboxamide]	100 to 500	** (a Y value (shown as**) of 20%<Y≤35%)
O=C1CCC(N2Cc3cc(C(=O)N[C@H](c4ccc(F)cc4OC(F)(F)F)C(F)(F)F)ccc3C2=O)C(=O)N1 (stereo partly drawn) [Example 86, 2-(2,6-dioxopiperidin-3-yl)-1-oxo-N-((R)-2,2,2-trifluoro-1-(4-fluoro-2-(trifluoromethoxy)phenyl)ethyl)isoindoline-5-carboxamide]	< 100	* (a Y value (shown as *) of 0<Y≤20%)
